From US10144732B2 (BIOGEN MA INC., priority 2014, dated 2018)
Structures can show the parent of a compound that is named as a salt. Where two headings read alike, the source gives them in different places.

Target: T1, Human ATX protein (Homo sapiens, UniProt Q13822)
T1 construct: made in house
Assay: ATX biochemical assay (FRET, FS-3 substrate)
Settings: FS-3 2 μM, ATX 1.0 μg/mL, 30 minutes preincubation, 2 hours reaction at room temperature
In short: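 FRET read-out: cleavage of FS-3 (2 μM final) unquenches fluorescein, measured at 485/538 nm after 2 h at room temperature. Before substrate addition, in-house-expressed human autotaxin (1.0 μg/mL) sat with compound for 30 min in pH 7.4 Tris/NaCl/KCl/CaCl2/MgCl2 buffer containing fatty acid free-BSA at 1 mg/mL.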

With `O=C(CN[C@H]1CC[C@H](C(=O)O)CC1)N1CCc2c(C(F)(F)F)nn(Cc3ccc(F)cc3)c2C1` [Example 13-31, trans-4-(2-(1-(4-Fluorobenzyl)-3-(trifluoromethyl)-4,5-dihydro-1H-pyrazolo[3,4-c]pyridin-6(7H)-yl)-2-oxoethylamino)cyclohexanecarboxylic acid TFA salt] the IC50 (FRET assay, read-out: IC50) was ≤ 100 nM.
`O=C(N[C@H]1CC[C@@H](C(=O)O)CC1)N1CCc2c(C(F)(F)F)nn(Cc3ccc(Cl)cc3F)c2C1` [Example 5-6, cis-4-(1-(4-chloro-2-fluorobenzyl)-3-(trifluoromethyl)-4,5,6,7-tetrahydro-1H-pyrazolo[3,4-c]pyridine-6-carboxamido)cyclohexanecarboxylic acid] was tested, and the IC50 (FRET assay, read-out: IC50) was ≤ 100 nM.
`CCOC(=O)C1CCCN(CC(=O)N2CCc3c(C(F)(F)F)nn(Cc4ccc(F)cc4)c3C2)CC1` (stereo not drawn) [Example 12-16, Ethyl 1-(2-(1-(4-fluorobenzyl)-3-(trifluoromethyl)-4,5-dihydro-1H-pyrazolo[3,4-c]pyridin-6(7H)-yl)-2-oxoethyl)azepane-4-carboxylate TFA salt] was tested, and the IC50 (FRET assay, read-out: IC50) was ≤ 100 nM.
`CCOC(=O)[C@H]1CC[C@@H](CC(=O)N2CCc3c(C(F)(F)F)nn(Cc4ccc(Cl)cc4F)c3C2)CC1` [Example 2-2, cis-Ethyl 4-(2-(1-(4-chloro-2-fluorobenzyl)-3-(trifluoromethyl)-4,5-dihydro-1H-pyrazolo[3,4-c]pyridin-6(7H)-yl)-2-oxoethyl)cyclohexanecarboxylate] was tested, and the IC50 (FRET assay, read-out: IC50) was ≤ 100 nM.
With `CC(c1ccc(F)cc1)n1nc(C(F)(F)F)c2c1CN(C(=O)C[C@H]1CC[C@H](C(=O)O)CC1)CC2` (stereo partly drawn) [Example 5-19, trans-4-(2-(1-(1-(4-Fluorophenyl)ethyl)-3-(trifluoromethyl)-4,5-dihydro-1H-pyrazolo[3,4-c]pyridin-6(7H)-yl)-2-oxoethyl)cyclohexanecarboxylic acid] the IC50 (FRET assay, read-out: IC50) was ≤ 100 nM.
`O=C(C[C@H]1CC[C@H](C(=O)O)CC1)N1CCc2c(C(F)(F)F)nn(Cc3cccs3)c2C1` [Example 5-26, trans-4-(2-Oxo-2-(1-(thiophen-2-ylmethyl)-3-(trifluoromethyl)-4,5-dihydro-1H-pyrazolo[3,4-c]pyridin-6(7H)-yl)ethyl)cyclohexanecarboxylic acid] was tested, and the IC50 (FRET assay, read-out: IC50) was ≤ 100 nM.
With `CCN1CCC(CC(=O)N2CCc3c(C(F)(F)F)nn(Cc4ccc(Cl)cc4F)c3C2)CC1` [Example 11-3, 1-(1-(4-Chloro-2-fluorobenzyl)-3-(trifluoromethyl)-4,5-dihydro-1H-pyrazolo[3,4-c]pyridin-6(7H)-yl)-2-(1-ethylpiperidin-4-yl)ethanone HCl salt] the IC50 (FRET assay, read-out: IC50) was ≤ 100 nM.
`O=C(O)C1CCCN(CC(=O)N2CCc3c(C(F)(F)F)nn(Cc4ccc(F)cc4)c3C2)C1` (stereo not drawn) [Example 13-7, 1-(2-(1-(4-Fluorobenzyl)-3-(trifluoromethyl)-4,5-dihydro-1H-pyrazolo[3,4-c]pyridin-6(7H)-yl)-2-oxoethyl)piperidine-3-carboxylic acid] was tested, and the IC50 (FRET assay, read-out: IC50) was ≤ 100 nM.
In the case of `CS(=O)(=O)NC(=O)[C@H]1CC[C@@H](CC(=O)N2CCc3c(C(F)(F)F)nn(Cc4ccc(F)cc4)c3C2)CC1` [Example 19-2, cis-4-(2-(1-(4-fluorobenzyl)-3-(trifluoromethyl)-4,5-dihydro-1H-pyrazolo[3,4-c]pyridin-6(7H)-yl)-2-oxoethyl)-N-(methylsulfonyl)cyclohexane carboxamide], the IC50 (FRET assay, read-out: IC50) is reported as ≤ 100 nM.
With `CCOC(=O)C1CCC(CC(=O)N2CCc3c(C(F)(F)F)nn(Cc4cccc(F)c4)c3C2)CC1` (stereo not drawn) [Example 1-18, Ethyl 4-(2-(1-(3-fluorobenzyl)-3-(trifluoromethyl)-4,5-dihydro-1H-pyrazolo[3,4-c]pyridin-6(7H)-yl)-2-oxoethyl)cyclohexanecarboxylate] the IC50 (FRET assay, read-out: IC50) was ≤ 100 nM.
`CCOC(=O)C1CCC(CC(=O)N2CCc3cnn(Cc4ccc(F)cc4)c3C2)CC1` (stereo not drawn) [Example 1-17, Ethyl 4-(2-(1-(4-fluorobenzyl)-4,5-dihydro-1H-pyrazolo[3,4-c]pyridin-6(7H)-yl)-2-oxoethyl)cyclohexanecarboxylate] was tested, and the IC50 (FRET assay, read-out: IC50) was ≤ 100 nM.
`O=C(O)C1CC2CCCC(C1)N2CC(=O)N1CCc2c(C(F)(F)F)nn(Cc3ccc(F)cc3)c2C1` (stereo not drawn) [Example 13-6, 9-(2-(1-(4-Fluorobenzyl)-3-(trifluoromethyl)-4,5-dihydro-1H-pyrazolo[3,4-c]pyridin-6(7H)-yl)-2-oxoethyl)-9-azabicyclo[3.3.3.1]nonane-3-carboxylic acid] was tested, and the IC50 (IC50, FRET assay) was ≤ 100 nM.
In the case of `O=C(CC12CCC(C(=O)O)(CC1)C2)N1CCc2c(C(F)(F)F)nn(Cc3ccc(Cl)cc3F)c2C1` [Example 5-52, 4-(2-(1-(4-Chloro-2-fluorobenzyl)-3-(trifluoromethyl)-4,5-dihydro-1H-pyrazolo[3,4-c]pyridin-6(7H)-yl)-2-oxoethyl)bicyclo[2.2.1]heptane-1-carboxylic acid], the IC50 (FRET assay, read-out: IC50) is reported as ≤ 100 nM.
With `CCCC1CC(CC(=O)N2CCc3c(C(F)(F)F)nn(Cc4ccc(F)cc4)c3C2)CCN1C(=O)OC(C)(C)C` (stereo not drawn) [Example 8-9, tert-Butyl 4-(2-(1-(4-fluorobenzyl)-3-(trifluoromethyl)-4,5-dihydro-1H-pyrazolo[3,4-c]pyridin-6(7H)-yl)-2-oxoethyl)-2-propylpiperidine-1-carboxylate] the IC50 (FRET assay, read-out: IC50) was ≤ 100 nM.
`N#Cc1ccc(Cn2nc(C(F)(F)F)c3c2CN(C(=O)C[C@H]2CC[C@@H](C(=O)O)CC2)CC3)cc1` (stereo in doubt) [Example 5-35, cis-4-(2-(1-(4-Cyanobenzyl)-3-(trifluoromethyl)-4,5-dihydro-1H-pyrazolo[3,4-c]pyridin-6(7H)-yl)-2-oxoethyl)cyclohexanecarboxylic acid] was tested, and the IC50 (FRET assay, read-out: IC50) was ≤ 100 nM.
With `CCOC(=O)[C@H]1CC[C@H](CC(=O)N2CCc3c(C(F)(F)F)nn(Cc4cncs4)c3C2)CC1` [Example 1-47, trans-Ethyl 4-(2-oxo-2-(1-(thiazol-5-ylmethyl)-3-(trifluoromethyl)-4,5-dihydro-1H-pyrazolo[3,4-c]pyridin-6(7H)-yl)ethyl)cyclohexanecarboxylate] the IC50 (FRET assay, read-out: IC50) was ≤ 100 nM.
For `CCOC(=O)[C@H]1CC[C@@H](CC(=O)N2CCc3c(C(F)(F)F)nn(Cc4cc(F)cc(Cl)c4)c3C2)CC1` [Example 2-4, cis-ethyl 4-(2-(1-(3-chloro-5-fluorobenzyl)-3-(trifluoromethyl)-4,5-dihydro-1H-pyrazolo[3,4-c]pyridin-6(7H)-yl)-2-oxoethyl)cyclohexanecarboxylate], the IC50 (FRET assay, read-out: IC50) was ≤ 100 nM.
`CCOC(=O)[C@H]1CC[C@H](CC(=O)N2CCc3c(-c4ccccc4)nn(Cc4ccc(F)cc4)c3C2)CC1` [Example 1-44, trans-Ethyl 4-(2-(1-(4-fluorobenzyl)-3-phenyl-4,5-dihydro-1H-pyrazolo[3,4-c]pyridin-6(7H)-yl)-2-oxoethyl)cyclohexanecarboxylate] was tested, and the IC50 (FRET assay, read-out: IC50) was ≤ 100 nM.
For `N#Cc1nn(Cc2ccc(F)cc2)c2c1CCN(C(=O)C[C@H]1CC[C@H](C(=O)O)CC1)C2` [Example 5-46, trans-4-(2-(3-Cyano-1-(4-fluorobenzyl)-4,5-dihydro-1H-pyrazolo[3,4-c]pyridin-6(7H)-yl)-2-oxoethyl)cyclohexanecarboxylic acid], the IC50 (FRET assay, read-out: IC50) was ≤ 100 nM.
In the case of `CN1CC(CC(=O)N2CCc3c(C(F)(F)F)nn(Cc4ccc(Cl)cc4F)c3C2)C[C@H]1C(=O)O` (stereo partly drawn) [Example 10-11, (2S)-4-(2-(1-(4-Chloro-2-fluorobenzyl)-3-(trifluoromethyl)-4,5-dihydro-1H-pyrazolo[3,4-c]pyridin-6(7H)-yl)-2-oxoethyl)-1-methylpyrrolidine-2-carboxylic acid TFA salt], the IC50 (FRET assay, read-out: IC50) is reported as ≤ 100 nM.
For `O=C(O)C1CC(CC(=O)N2CCc3c(C(F)(F)F)nn(Cc4ccc(Cl)cc4F)c3C2)C1` (mixture of isomers) [Example 6-8, 3-(2-(1-(4-Chloro-2-fluorobenzyl)-3-(trifluoromethyl)-4,5-dihydro-1H-pyrazolo[3,4-c]pyridin-6(7H)-yl)-2-oxoethyl)cyclobutanecarboxylic acid], the IC50 (FRET assay, read-out: IC50) was ≤ 100 nM.
`O=C(C1CCCCC1)N1CCc2c(C(F)(F)F)nn(Cc3ccc(Cl)cc3F)c2C1` [Example 1-6, (1-(4-Chloro-2-fluorobenzyl)-3-(trifluoromethyl)-4,5-dihydro-1H-pyrazolo[3,4-c]pyridin-6(7H)-yl) (cyclohexyl)methanone] was tested, and the IC50 (FRET assay, read-out: IC50) was > 10000 nM.
For `CC1CC(CC(=O)N2CCc3c(C(F)(F)F)nn(Cc4ccc(Cl)cc4F)c3C2)CCN1` (stereo not drawn) [Example 9-5, 1-(1-(4-Chloro-2-fluorobenzyl)-3-(trifluoromethyl)-4,5-dihydro-1H-pyrazolo[3,4-c]pyridin-6(7H)-yl)-2-(2-methylpiperidin-4-yl)ethanone TFA salt], the IC50 (FRET assay, read-out: IC50) was ≤ 100 nM.
`O=C(O)CC1CCN(CC(=O)N2CCc3c(C(F)(F)F)nn(Cc4ccc(Cl)cc4F)c3C2)CC1` [Example 13-13, 2-(1-(2-(1-(4-Chloro-2-fluorobenzyl)-3-(trifluoromethyl)-4,5-dihydro-1H-pyrazolo[3,4-c]pyridin-6(7H)-yl)-2-oxoethyl)piperidin-4-yl)acetic acid TFA salt] was tested, and the IC50 (FRET assay, read-out: IC50) was ≤ 100 nM.
With `O=C(C[C@H]1CC[C@@H](C(=O)O)CC1)N1CCc2c(C(F)(F)F)nn(Cc3ccccc3)c2C1` [Example 7-12, cis-4-(2-(1-benzyl-3-(trifluoromethyl)-4,5-dihydro-1H-pyrazolo[3,4-c]pyridin-6(7H)-yl)-2-oxoethyl)cyclohexanecarboxylic acid] the IC50 (FRET assay, read-out: IC50) was ≤ 100 nM.
In the case of `CCOC(=O)C1CCN(C(C)C(=O)N2CCc3c(C(F)(F)F)nn(Cc4ccc(Cl)cc4F)c3C2)CC1` (stereo not drawn) [Example 12-6, Ethyl 1-(1-(1-(4-chloro-2-fluorobenzyl)-3-(trifluoromethyl)-4,5-dihydro-1H-pyrazolo[3,4-c]pyridin-6(7H)-yl)-1-oxopropan-2-yl)piperidine-4-carboxylate], the IC50 (FRET assay, read-out: IC50) is reported as ≤ 100 nM.
For `O=C(CC1CC2CNCC2C1)N1CCc2c(C(F)(F)F)nn(Cc3ccc(Cl)cc3F)c2C1` (stereo not drawn) [Example 9-21, 1-(1-(4-Chloro-2-fluorobenzyl)-3-(trifluoromethyl)-4,5-dihydro-1H-pyrazolo[3,4-c]pyridin-6(7H)-yl)-2-(octahydrocyclopenta[c]pyrrol-5-yl)ethanone TFA salt], the IC50 (FRET assay, read-out: IC50) was ≤ 100 nM.
